In ChEMBL document CHEMBL1201862, “PubChem BioAssay data set” (2004):
Calls of active or inactive are those of the source.

Experiments:
[1] = target: DNA dC->dU-editing enzyme APOBEC-3A (Homo sapiens, UniProt P31941); experiment: Dose Response confirmation of small molecule APOBEC3A DNA Deaminase Inhibitors via a fluorescence-based single-stranded DNA deaminase assay. [Related pubchem assays (depositor defined):AID493011, AID493024]; type: functional
[2] = target: DNA dC->dU-editing enzyme APOBEC-3G (Homo sapiens, UniProt Q9HC16); type: functional;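 further: Dose-response counterscreen measuring inhibition of APOBEC3G DNA deaminase activity, run while confirming APOBEC3A inhibitors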
Chain of DNA dC->dU-editing enzyme APOBEC-3G (Q9HC16 whole entry): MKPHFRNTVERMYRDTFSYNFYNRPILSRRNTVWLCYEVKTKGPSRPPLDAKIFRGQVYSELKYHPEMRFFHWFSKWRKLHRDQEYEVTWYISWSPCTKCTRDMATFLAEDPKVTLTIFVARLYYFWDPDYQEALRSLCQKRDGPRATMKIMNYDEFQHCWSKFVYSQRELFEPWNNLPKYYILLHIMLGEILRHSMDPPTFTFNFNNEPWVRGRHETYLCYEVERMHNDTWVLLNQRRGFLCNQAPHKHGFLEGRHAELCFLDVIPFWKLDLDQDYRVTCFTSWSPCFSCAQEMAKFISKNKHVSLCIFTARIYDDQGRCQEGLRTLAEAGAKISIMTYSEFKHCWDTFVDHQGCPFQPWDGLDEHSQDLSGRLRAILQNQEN

[3] = cytotoxicity in HEK-293T cells, dose response, cytotoxicity control for TCR NF-kB inhibitor project, luminescence, T-cell screen hits (AID 489026); type: functional, cell-based;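 further: cells exposed to compound about 14 hours before the viability readout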
[4] = Shn3 3'UTR reporter inhibitors, dose response, cell-based, Clone20 osteoblasts, firefly luciferase, cherry-picked (AID 624132); type: functional;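 further: firefly luciferase luminescence from reporter carrying the Shn3 3'UTR in osteoblasts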
[5] = control 3'UTR Renilla luciferase suppression, dose response, counter-screen for Shn3 inhibitor project, cell-based, Clone20-Shn3RL, cherry-picked (AID 624133); type: functional
[6] = ZM109 Env clade C HIV-1 fusion inhibitors, dose response, HeLa effector, CEM target cells, luciferase, cherry-pick (AID 652058); type: functional, cell-based
[7] = inhibitors of clade B AD8 Env fusion, dose response, cell-based, cherry-pick (AID 652062); type: functional;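 further: luciferase signal from cell-cell fusion driven by HIV-1 clade B AD8 Env; potency is for inhibitors of fusion seen as a drop in luminescence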
[8] = target: T1, Short transient receptor potential channel 4 (Mus musculus, UniProt Q9QUQ5); experiment: mouse TRPC4 channel activators, dose response, cell-based, HEK293 TRPC4/mu-opioid, Fluo-4 calcium (AID 434937); type: functional
T1 sequence (Q9QUQ5 whole entry): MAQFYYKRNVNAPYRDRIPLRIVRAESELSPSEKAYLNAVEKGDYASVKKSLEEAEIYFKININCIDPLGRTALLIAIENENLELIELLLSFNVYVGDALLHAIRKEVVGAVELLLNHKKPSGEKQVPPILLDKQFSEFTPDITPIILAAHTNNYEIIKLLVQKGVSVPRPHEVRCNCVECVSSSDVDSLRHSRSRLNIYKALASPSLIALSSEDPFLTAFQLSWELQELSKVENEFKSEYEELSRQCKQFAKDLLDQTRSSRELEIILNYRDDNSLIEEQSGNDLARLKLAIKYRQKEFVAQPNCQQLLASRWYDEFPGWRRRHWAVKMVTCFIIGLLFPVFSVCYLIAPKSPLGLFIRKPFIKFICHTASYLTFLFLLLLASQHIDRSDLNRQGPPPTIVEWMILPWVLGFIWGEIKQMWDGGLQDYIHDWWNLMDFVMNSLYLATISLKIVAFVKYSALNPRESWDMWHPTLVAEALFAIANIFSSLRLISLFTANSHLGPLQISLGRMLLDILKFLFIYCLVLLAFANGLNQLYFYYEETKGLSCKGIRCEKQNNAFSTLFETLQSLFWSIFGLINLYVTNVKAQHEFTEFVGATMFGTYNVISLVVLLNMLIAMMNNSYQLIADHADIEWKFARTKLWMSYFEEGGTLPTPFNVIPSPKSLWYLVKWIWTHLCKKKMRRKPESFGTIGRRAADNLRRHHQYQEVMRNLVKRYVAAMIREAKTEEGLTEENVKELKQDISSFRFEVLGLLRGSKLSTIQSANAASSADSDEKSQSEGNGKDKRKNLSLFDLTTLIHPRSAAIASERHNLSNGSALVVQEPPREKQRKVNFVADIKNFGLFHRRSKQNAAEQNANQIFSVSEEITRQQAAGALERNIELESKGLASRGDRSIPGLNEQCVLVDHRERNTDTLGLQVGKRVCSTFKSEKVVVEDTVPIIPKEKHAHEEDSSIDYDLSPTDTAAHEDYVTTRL

BJ [9] = experiment: cytotoxicity toward BJ-TERT fibroblasts, dose response, cell-based, RAS-independent, luminescence (AID 1933); type: functional; conditions: Homo sapiens
BJ [10] = experiment: cells; type: functional, cell-based; conditions: Homo sapiens
BJ [11] = experiment: cytotoxicity toward BJ-TERT-LT-ST fibroblasts, dose response, cell-based, RAS-independent, luminescence (AID 1935); type: functional; conditions: Homo sapiens;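 further: BJ fibroblasts immortalized with TERT plus LT and ST oncogenes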
[12] = cytotoxicity toward DRD oncogenic fibroblasts, dose response, cell-based, non-viral oncogenic, luminescence (AID 1934); type: functional; conditions: Homo sapiens
Large T antigen = Large T antigen (Simian virus 40, UniProt P03070); type: functional, Betapolyomavirus macacae;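 further: Confirmatory-stage PubChem screen for compounds that inhibit SV40 T antigen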
Chain of Large T antigen (P03070 whole entry): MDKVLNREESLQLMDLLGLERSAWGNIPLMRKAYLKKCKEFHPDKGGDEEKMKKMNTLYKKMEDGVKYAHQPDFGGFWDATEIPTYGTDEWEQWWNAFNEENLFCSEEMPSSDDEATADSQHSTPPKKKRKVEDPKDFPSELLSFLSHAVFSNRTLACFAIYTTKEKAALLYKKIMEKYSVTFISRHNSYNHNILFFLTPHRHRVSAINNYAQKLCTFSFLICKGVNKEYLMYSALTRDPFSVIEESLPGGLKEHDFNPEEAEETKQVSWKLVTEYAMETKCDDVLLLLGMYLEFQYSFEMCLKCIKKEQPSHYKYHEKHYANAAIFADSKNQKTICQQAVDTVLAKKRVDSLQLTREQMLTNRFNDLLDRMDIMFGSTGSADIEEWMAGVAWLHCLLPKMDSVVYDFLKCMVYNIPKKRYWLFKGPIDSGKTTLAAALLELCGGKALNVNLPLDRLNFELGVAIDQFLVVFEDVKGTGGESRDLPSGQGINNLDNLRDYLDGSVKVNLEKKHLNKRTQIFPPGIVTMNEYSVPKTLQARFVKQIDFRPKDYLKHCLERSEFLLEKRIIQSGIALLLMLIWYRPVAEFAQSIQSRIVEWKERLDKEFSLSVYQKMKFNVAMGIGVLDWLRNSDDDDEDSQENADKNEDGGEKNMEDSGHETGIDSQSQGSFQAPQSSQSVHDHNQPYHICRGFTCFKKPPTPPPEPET

[13] = target: Induced myeloid leukemia cell differentiation protein Mcl-1 (Homo sapiens, UniProt Q07820); type: functional
Chain of Induced myeloid leukemia cell differentiation protein Mcl-1 (Q07820 whole entry): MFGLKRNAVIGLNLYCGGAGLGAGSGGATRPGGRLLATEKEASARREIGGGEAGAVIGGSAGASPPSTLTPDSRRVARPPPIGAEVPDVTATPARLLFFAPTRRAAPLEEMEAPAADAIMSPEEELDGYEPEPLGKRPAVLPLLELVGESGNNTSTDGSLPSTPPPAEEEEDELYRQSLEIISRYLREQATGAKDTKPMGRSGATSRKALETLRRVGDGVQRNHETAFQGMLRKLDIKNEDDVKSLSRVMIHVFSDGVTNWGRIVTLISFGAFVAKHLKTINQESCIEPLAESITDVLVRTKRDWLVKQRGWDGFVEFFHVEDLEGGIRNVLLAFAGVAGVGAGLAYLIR

[14] = target: T2, Replicative DNA helicase DnaB (Mycobacterium tuberculosis, UniProt P9WMR3); experiment: DnaB intein splicing inhibitors, dose response, biochemical, cell-free fluorescence (AID 449749); type: functional
T2 sequence (P9WMR3 whole entry): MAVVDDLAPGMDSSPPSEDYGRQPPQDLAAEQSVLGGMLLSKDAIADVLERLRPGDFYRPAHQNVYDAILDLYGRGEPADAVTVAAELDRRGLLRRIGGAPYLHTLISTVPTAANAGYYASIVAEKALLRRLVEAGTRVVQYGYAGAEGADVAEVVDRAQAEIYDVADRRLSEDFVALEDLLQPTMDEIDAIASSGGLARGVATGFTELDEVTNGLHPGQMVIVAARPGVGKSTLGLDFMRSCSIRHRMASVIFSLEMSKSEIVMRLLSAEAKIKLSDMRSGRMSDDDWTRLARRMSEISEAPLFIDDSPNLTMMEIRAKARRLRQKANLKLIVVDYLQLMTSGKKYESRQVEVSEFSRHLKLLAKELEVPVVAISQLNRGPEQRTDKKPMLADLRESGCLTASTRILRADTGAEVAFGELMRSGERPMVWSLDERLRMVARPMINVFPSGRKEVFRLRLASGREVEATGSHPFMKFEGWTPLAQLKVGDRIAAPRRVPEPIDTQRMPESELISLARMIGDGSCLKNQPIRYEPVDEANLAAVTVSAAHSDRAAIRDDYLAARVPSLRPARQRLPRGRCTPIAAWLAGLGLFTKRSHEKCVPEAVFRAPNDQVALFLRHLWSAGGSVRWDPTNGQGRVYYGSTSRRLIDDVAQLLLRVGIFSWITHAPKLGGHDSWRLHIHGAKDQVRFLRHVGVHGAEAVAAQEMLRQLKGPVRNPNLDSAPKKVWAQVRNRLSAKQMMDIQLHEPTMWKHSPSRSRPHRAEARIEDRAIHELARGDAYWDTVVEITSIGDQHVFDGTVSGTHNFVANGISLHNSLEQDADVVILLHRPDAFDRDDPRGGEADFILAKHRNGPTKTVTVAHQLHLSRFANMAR

Protein RecA = target: T3, Protein RecA (Mycobacterium tuberculosis, UniProt P9WHJ3); experiment: Fluorescence Cell-Free Homogeneous Dose Retest to Identify Inhibitors of RecA-Intein Splicing Activity. [Related pubchem assays (depositor defined):AID2097, AID2223, AID489010, AID492950]; type: functional
T3 sequence (P9WHJ3 whole entry): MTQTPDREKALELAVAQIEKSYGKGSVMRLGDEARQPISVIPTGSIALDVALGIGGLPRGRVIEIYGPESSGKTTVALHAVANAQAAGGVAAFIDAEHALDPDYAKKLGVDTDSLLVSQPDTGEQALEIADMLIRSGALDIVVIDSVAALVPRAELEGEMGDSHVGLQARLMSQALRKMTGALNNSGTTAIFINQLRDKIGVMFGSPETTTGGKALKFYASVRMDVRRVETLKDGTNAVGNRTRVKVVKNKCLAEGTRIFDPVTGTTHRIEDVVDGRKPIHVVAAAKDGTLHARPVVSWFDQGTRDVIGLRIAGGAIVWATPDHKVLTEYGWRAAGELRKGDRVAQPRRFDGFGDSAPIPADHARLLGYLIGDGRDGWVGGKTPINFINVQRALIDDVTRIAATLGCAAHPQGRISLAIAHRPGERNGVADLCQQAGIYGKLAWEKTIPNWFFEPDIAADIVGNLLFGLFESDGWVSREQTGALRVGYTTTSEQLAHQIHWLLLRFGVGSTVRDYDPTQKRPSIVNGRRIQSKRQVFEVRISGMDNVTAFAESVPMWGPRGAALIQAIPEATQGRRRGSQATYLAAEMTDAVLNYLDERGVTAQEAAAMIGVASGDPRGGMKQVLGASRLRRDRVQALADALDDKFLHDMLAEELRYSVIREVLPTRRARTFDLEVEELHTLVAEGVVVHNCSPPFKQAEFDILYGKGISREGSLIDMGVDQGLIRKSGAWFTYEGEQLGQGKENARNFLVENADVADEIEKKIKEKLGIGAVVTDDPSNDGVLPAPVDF

[15] = target: T4, Small ubiquitin-related modifier 1 (Homo sapiens, UniProt P63165); experiment: inhibitors of SUMO1 peptide binding, dose response, biochemical, fluorescence polarization, uHTS hits (AID 624382); type: functional; conditions: read-out: IC50_Mean
T4 sequence (P63165 whole entry): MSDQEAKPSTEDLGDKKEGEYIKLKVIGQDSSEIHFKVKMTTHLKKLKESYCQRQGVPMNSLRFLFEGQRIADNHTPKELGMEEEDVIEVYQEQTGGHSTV

[16] = target: T4, Small ubiquitin-related modifier 1; experiment: inhibitors of SUMO1 partner interactions, dose response, biochemical, FRET (AID 624383); type: functional; conditions: read-out: IC50_Mean
[17] = target: T5, Histone-lysine N-methyltransferase NSD2 (Homo sapiens, UniProt O96028); type: biochemical
T5 sequence (O96028 whole entry): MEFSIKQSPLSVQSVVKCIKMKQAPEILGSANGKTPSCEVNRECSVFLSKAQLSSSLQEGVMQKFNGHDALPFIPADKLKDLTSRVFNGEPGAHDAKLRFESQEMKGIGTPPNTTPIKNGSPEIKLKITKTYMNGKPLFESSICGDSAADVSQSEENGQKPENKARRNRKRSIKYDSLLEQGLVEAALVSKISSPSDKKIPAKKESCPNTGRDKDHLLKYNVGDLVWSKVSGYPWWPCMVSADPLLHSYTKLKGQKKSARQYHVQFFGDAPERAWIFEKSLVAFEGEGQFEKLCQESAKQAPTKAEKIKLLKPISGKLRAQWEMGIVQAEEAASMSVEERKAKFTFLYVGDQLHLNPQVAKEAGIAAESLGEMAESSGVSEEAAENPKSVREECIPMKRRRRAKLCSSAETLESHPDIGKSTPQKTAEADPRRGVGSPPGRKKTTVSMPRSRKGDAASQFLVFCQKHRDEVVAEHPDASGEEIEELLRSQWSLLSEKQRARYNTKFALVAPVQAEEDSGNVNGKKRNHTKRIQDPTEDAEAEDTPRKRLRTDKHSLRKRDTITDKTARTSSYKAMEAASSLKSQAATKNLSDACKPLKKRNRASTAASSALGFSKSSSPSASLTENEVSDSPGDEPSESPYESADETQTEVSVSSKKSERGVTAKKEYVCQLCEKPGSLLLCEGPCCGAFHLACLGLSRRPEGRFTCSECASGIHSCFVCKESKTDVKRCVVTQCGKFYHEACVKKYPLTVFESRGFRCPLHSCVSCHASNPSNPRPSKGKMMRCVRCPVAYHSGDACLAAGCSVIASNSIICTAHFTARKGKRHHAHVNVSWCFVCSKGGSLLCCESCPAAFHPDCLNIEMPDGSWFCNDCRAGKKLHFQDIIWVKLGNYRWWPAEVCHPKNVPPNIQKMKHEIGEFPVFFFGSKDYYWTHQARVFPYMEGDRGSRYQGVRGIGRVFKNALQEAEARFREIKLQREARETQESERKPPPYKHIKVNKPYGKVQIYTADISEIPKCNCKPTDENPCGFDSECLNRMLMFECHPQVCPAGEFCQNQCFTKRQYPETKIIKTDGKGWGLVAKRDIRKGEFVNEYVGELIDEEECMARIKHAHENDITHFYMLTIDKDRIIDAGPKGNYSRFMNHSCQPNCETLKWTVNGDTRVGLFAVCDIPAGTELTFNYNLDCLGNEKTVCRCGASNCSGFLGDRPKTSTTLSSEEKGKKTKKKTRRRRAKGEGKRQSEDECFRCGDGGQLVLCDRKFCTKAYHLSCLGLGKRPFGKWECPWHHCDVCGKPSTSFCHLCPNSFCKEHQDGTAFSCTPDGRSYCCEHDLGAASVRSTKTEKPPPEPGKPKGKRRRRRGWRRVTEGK

Chain of DNA dC->dU-editing enzyme APOBEC-3A (P31941 whole entry): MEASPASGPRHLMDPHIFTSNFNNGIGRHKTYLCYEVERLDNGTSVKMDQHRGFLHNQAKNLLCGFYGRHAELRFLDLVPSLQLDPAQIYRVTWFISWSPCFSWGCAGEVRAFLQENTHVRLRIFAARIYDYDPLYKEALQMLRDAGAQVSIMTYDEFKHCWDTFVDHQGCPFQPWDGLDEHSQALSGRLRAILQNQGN

SMILES: CCCc1nc2sc3c(SCC(=O)NCc4ccco4)ncnc3c2c2c1CCC2
- IC50 [1]: 15.8 µM (active)
- IC50 [2]: 25.3 µM (active)

SMILES: O=C(Nc1ccc(S(=O)(=O)N2CCN(Cc3ccccc3)CC2)cc1)c1cnccn1
- IC50 [3]: > 80 µM (inactive)
- AC50 [4]: 1.65 µM (active)
- AC50 [5]: 4.15 µM (active)
- AC50 [6]: < 0.26 µM (active)
- AC50 [7]: 4.9 µM (active)

SMILES: O=C(O)Cc1ccc(S(=O)(=O)N2CCCC2)s1
- IC50 [1]: 17.4 µM (active)
- IC50 [2]: 66.5 µM (active)

SMILES: COc1ccc2c(/C=C/c3cc[n+](C)cc3)c[nH]c2c1
- IC50 [1]: 6.12 µM (active)
- IC50 [2]: 6.31 µM (active)

SMILES: COc1cc(C)c(NC(=O)C2CCN(S(=O)(=O)c3cccs3)CC2)cc1OC
- IC50 [1]: 12 µM (active)
- IC50 [2]: 13.9 µM (active)

SMILES: CCOC(=O)C1(CCOc2ccccc2)CCN(Cc2ccc(OC)c(O)c2)CC1
- EC50 [8]: 0.473 µM (active)

SMILES: CCc1cc2c(s1)N1Cc3ccccc3C(C(=O)c3cccc([N+](=O)[O-])c3)=C1NC2=O
- EC50 (BJ [9]): > 150 µM (not active)
- EC50 (BJ [10]): > 150 µM (not active)
- EC50 (BJ [11]): > 150 µM (inconclusive)
- EC50 [12]: > 150 µM (not active)
- IC50 [3]: > 80 µM (inactive)

SMILES: CN1C(=O)/C(=C/c2ccc(-c3ccccc3[N+](=O)[O-])o2)S/C1=N\c1ccc(Cl)c(C(=O)O)c1
- IC50 (Large T antigen): 52.8 µM (active)
- IC50 [13]: 14 µM (active)
- AC50 [14]: 10.6 µM (active)
- EC50 (Protein RecA): 5.51 µM (active)
- IC50 [15]: > 66.6 µM (inactive)
- IC50 [16]: 17.7 µM (active)
- AC50 [17]: 4.58 µM (active)

SMILES: CC(=Nc1cc(C)cc(C)c1)N(C)CCNS(=O)(=O)c1ccc(Cl)cc1
- IC50 [1]: 2.67 µM (active)
- IC50 [2]: 4.92 µM (active)
